Data as given in US20200288711A1, “Pyrimidin-4-Carbamate or Urea Derivatives As Herbicides” (Syngenta Participations AG, priority 2017, published 2020).

System: Alopecurus myosuroides (ALOMY)
Test: B1 pre-emergence herbicidal activity
Format: in vivo
Parameters: key: 5=total damage to plant; 0=no damage to plant
Conditions: Test 1b, rate 1000 g/ha, evaluated after 13 days, score 0-5 (5=total damage, 0=no damage)
Method: (§1) Seeds of a variety of test species were sown in standard soil in pots: Triticum aestivium (TRZAW), Avena fatua (AVEFA), Alopecurus myosuroides (ALOMY), Echinochloa crus-galli (ECHCG), Lolium perenne (LOLPE), Zea mays (ZEAMX), Abutilon theophrasti (ABUTH), Amaranthus retroflexus (AMARE) and Setaria faberi (SETFA). After cultivation for one day (pre-emergence) under controlled conditions in a glasshouse (at 24/16° C., day/night; 14 hours light; 65% humidity), the plants were sprayed with an aqueous spray solution derived from the formulation of the technical active ingredient in acetone/water (50:50) solution containing 0.5% Tween 20 (polyoxyethelyene sorbitan monolaurate, CAS RN 9005-64-5). The test plants were then grown in a glasshouse under controlled conditions (at 24/16° C., day/night; 14 hours light; 65% humidity) and watered twice daily. After 13 days, the test was evaluated (5=total damage to plant; 0=no damage to plant).

Compound	Pre-emergence herbicidal activity, ALOMY
Cc1nc(-c2cncnc2)ncc1N(C)C(=O)OC(C)(C)C [Compound E3]	1
CC(C)(C)OC(=O)Nc1cnc(-c2cncc(F)c2)nc1C(F)(F)F [Compound E4, tert-butyl N-[2-(5-fluoro-3-pyridyl)-4-(trifluoromethyl)pyrimidin-5-yl]carbamate]	0
CN(C(=O)OC(C)(C)C)c1cnc(-c2cncc(F)c2)nc1C(F)(F)F [Compound E5]	0
C=CCN(C(=O)OC(C)(C)C)c1cnc(-c2cncnc2)nc1C [Compound E6]	0
Cc1nc(-c2cncnc2)ncc1NC(=O)OC(C)(C)C [Compound E7, tert-butyl N-(4-methyl-2-pyrimidin-5-yl-pyrimidin-5-yl)carbamate]	0

System: Avena fatua (AVEFA)
Test: B1 pre-emergence herbicidal activity
Format: in vivo
Parameters: key: 5=total damage to plant; 0=no damage to plant
Conditions: Test 1b, rate 1000 g/ha, evaluated after 13 days, score 0-5 (5=total damage, 0=no damage)
Method: as §1

Compound	Pre-emergence herbicidal activity, AVEFA
Cc1nc(-c2cncnc2)ncc1N(C)C(=O)OC(C)(C)C [Compound E3]	4
CC(C)(C)OC(=O)Nc1cnc(-c2cncc(F)c2)nc1C(F)(F)F [Compound E4, tert-butyl N-[2-(5-fluoro-3-pyridyl)-4-(trifluoromethyl)pyrimidin-5-yl]carbamate]	4
CN(C(=O)OC(C)(C)C)c1cnc(-c2cncc(F)c2)nc1C(F)(F)F [Compound E5]	3
C=CCN(C(=O)OC(C)(C)C)c1cnc(-c2cncnc2)nc1C [Compound E6]	1
Cc1nc(-c2cncnc2)ncc1NC(=O)OC(C)(C)C [Compound E7, tert-butyl N-(4-methyl-2-pyrimidin-5-yl-pyrimidin-5-yl)carbamate]	2

System: Lolium perenne (LOLPE)
Test: B1 pre-emergence herbicidal activity
Format: in vivo
Parameters: key: 5=total damage to plant; 0=no damage to plant
Conditions: Test 1b, rate 1000 g/ha, evaluated after 13 days, score 0-5 (5=total damage, 0=no damage)
Method: as §1

Compound	Pre-emergence herbicidal activity, LOLPE
Cc1nc(-c2cncnc2)ncc1N(C)C(=O)OC(C)(C)C [Compound E3]	1
CC(C)(C)OC(=O)Nc1cnc(-c2cncc(F)c2)nc1C(F)(F)F [Compound E4, tert-butyl N-[2-(5-fluoro-3-pyridyl)-4-(trifluoromethyl)pyrimidin-5-yl]carbamate]	1
CN(C(=O)OC(C)(C)C)c1cnc(-c2cncc(F)c2)nc1C(F)(F)F [Compound E5]	1
C=CCN(C(=O)OC(C)(C)C)c1cnc(-c2cncnc2)nc1C [Compound E6]	1
Cc1nc(-c2cncnc2)ncc1NC(=O)OC(C)(C)C [Compound E7, tert-butyl N-(4-methyl-2-pyrimidin-5-yl-pyrimidin-5-yl)carbamate]	1

System: Triticum aestivium (TRZAW)
Test: B1 pre-emergence herbicidal activity
Format: in vivo
Parameters: key: 5=total damage to plant; 0=no damage to plant
Conditions: Test 1b, rate 1000 g/ha, evaluated after 13 days, score 0-5 (5=total damage, 0=no damage)
Method: as §1

Compound	Pre-emergence herbicidal activity, TRAZW
Cc1nc(-c2cncnc2)ncc1N(C)C(=O)OC(C)(C)C [Compound E3]	0
CC(C)(C)OC(=O)Nc1cnc(-c2cncc(F)c2)nc1C(F)(F)F [Compound E4, tert-butyl N-[2-(5-fluoro-3-pyridyl)-4-(trifluoromethyl)pyrimidin-5-yl]carbamate]	0
CN(C(=O)OC(C)(C)C)c1cnc(-c2cncc(F)c2)nc1C(F)(F)F [Compound E5]	0
C=CCN(C(=O)OC(C)(C)C)c1cnc(-c2cncnc2)nc1C [Compound E6]	0
Cc1nc(-c2cncnc2)ncc1NC(=O)OC(C)(C)C [Compound E7, tert-butyl N-(4-methyl-2-pyrimidin-5-yl-pyrimidin-5-yl)carbamate]	0

System: Setaria faberi (SETFA)
Test: B1 pre-emergence herbicidal activity
Format: in vivo
Parameters: key to Pre-emergence herbicidal activity, SETFA: 5=total damage to plant; 0=no damage to plant
Conditions: Test 1b, rate 1000 g/ha, evaluated after 13 days, score 0-5 (5=total damage, 0=no damage)
Method: as §1

Compound	Pre-emergence herbicidal activity, SETFA
Cc1nc(-c2cncnc2)ncc1N(C)C(=O)OC(C)(C)C [Compound E3]	4
CC(C)(C)OC(=O)Nc1cnc(-c2cncc(F)c2)nc1C(F)(F)F [Compound E4, tert-butyl N-[2-(5-fluoro-3-pyridyl)-4-(trifluoromethyl)pyrimidin-5-yl]carbamate]	4
CN(C(=O)OC(C)(C)C)c1cnc(-c2cncc(F)c2)nc1C(F)(F)F [Compound E5]	5
C=CCN(C(=O)OC(C)(C)C)c1cnc(-c2cncnc2)nc1C [Compound E6]	5
Cc1nc(-c2cncnc2)ncc1NC(=O)OC(C)(C)C [Compound E7, tert-butyl N-(4-methyl-2-pyrimidin-5-yl-pyrimidin-5-yl)carbamate]	4

System: Echinochloa crus-galli (ECHCG)
Test: B1 pre-emergence herbicidal activity
Format: in vivo
Parameters: key to Pre-emergence herbicidal activity, ECHCG: 5=total damage to plant; 0=no damage to plant
Conditions: Test 1b, rate 1000 g/ha, evaluated after 13 days, score 0-5 (5=total damage, 0=no damage)
Method: as §1

Compound	Pre-emergence herbicidal activity, ECHCG
Cc1nc(-c2cncnc2)ncc1N(C)C(=O)OC(C)(C)C [Compound E3]	4
CC(C)(C)OC(=O)Nc1cnc(-c2cncc(F)c2)nc1C(F)(F)F [Compound E4, tert-butyl N-[2-(5-fluoro-3-pyridyl)-4-(trifluoromethyl)pyrimidin-5-yl]carbamate]	4
CN(C(=O)OC(C)(C)C)c1cnc(-c2cncc(F)c2)nc1C(F)(F)F [Compound E5]	3
C=CCN(C(=O)OC(C)(C)C)c1cnc(-c2cncnc2)nc1C [Compound E6]	3
Cc1nc(-c2cncnc2)ncc1NC(=O)OC(C)(C)C [Compound E7, tert-butyl N-(4-methyl-2-pyrimidin-5-yl-pyrimidin-5-yl)carbamate]	5

System: Alopecurus myosuroides (ALOMY)
Test: B2 post-emergence herbicidal activity
Format: in vivo
Parameters: key: 5=total damage to plant; 0=no damage to plant
Conditions: Test 2b, rate 1000 g/ha, evaluated after 13 days, score 0-5 (5=total damage, 0=no damage)
Method: (§2) Seeds of a variety of test species were sown in standard soil in pots: Triticum aestivium (TRZAW), Avena fatua (AVEFA), Alopecurus myosuroides (ALOMY), Echinochloa crus-galli (ECHCG), Lolium perenne (LOLPE), Zea mays (ZEAMX), Abutilon theophrasti (ABUTH), Amaranthus retroflexus (AMARE) and Setaria faberi (SETFA). After 8 days cultivation (post-emergence) under controlled conditions in a glasshouse (at 24/16° C., day/night; 14 hours light; 65% humidity), the plants were sprayed with an aqueous spray solution derived from the formulation of the technical active ingredient in acetone/water (50:50) solution containing 0.5% Tween 20 (polyoxyethelyene sorbitan monolaurate, CAS RN 9005-64-5). The test plants were then grown in a glasshouse under controlled conditions (at 24/16° C., day/night; 14 hours light; 65% humidity) and watered twice daily. After 13 days, the test was evaluated (5=total damage to plant; 0=no damage to plant).

Compound	Control of weed species after post-emergence application, ALOMY
Cc1nc(-c2cncnc2)ncc1N(C)C(=O)OC(C)(C)C [Compound E3]	2
CC(C)(C)OC(=O)Nc1cnc(-c2cncc(F)c2)nc1C(F)(F)F [Compound E4, tert-butyl N-[2-(5-fluoro-3-pyridyl)-4-(trifluoromethyl)pyrimidin-5-yl]carbamate]	1
CN(C(=O)OC(C)(C)C)c1cnc(-c2cncc(F)c2)nc1C(F)(F)F [Compound E5]	0
C=CCN(C(=O)OC(C)(C)C)c1cnc(-c2cncnc2)nc1C [Compound E6]	1
Cc1nc(-c2cncnc2)ncc1NC(=O)OC(C)(C)C [Compound E7, tert-butyl N-(4-methyl-2-pyrimidin-5-yl-pyrimidin-5-yl)carbamate]	0

System: Avena fatua (AVEFA)
Test: B2 post-emergence herbicidal activity
Format: in vivo
Parameters: key: 5=total damage to plant; 0=no damage to plant
Conditions: Test 2b, rate 1000 g/ha, evaluated after 13 days, score 0-5 (5=total damage, 0=no damage)
Method: as §2

Compound	Control of weed species after post-emergence application, AVEFA
Cc1nc(-c2cncnc2)ncc1N(C)C(=O)OC(C)(C)C [Compound E3]	4
CC(C)(C)OC(=O)Nc1cnc(-c2cncc(F)c2)nc1C(F)(F)F [Compound E4, tert-butyl N-[2-(5-fluoro-3-pyridyl)-4-(trifluoromethyl)pyrimidin-5-yl]carbamate]	4
CN(C(=O)OC(C)(C)C)c1cnc(-c2cncc(F)c2)nc1C(F)(F)F [Compound E5]	4
C=CCN(C(=O)OC(C)(C)C)c1cnc(-c2cncnc2)nc1C [Compound E6]	2
Cc1nc(-c2cncnc2)ncc1NC(=O)OC(C)(C)C [Compound E7, tert-butyl N-(4-methyl-2-pyrimidin-5-yl-pyrimidin-5-yl)carbamate]	3

System: Echinochloa crus-galli (ECHCG)
Test: B2 post-emergence herbicidal activity
Format: in vivo
Parameters: key: 5=total damage to plant; 0=no damage to plant
Conditions: Test 2b, rate 1000 g/ha, evaluated after 13 days, score 0-5 (5=total damage, 0=no damage)
Method: as §2

Compound	Control of weed species after post-emergence application, ECHCG
Cc1nc(-c2cncnc2)ncc1N(C)C(=O)OC(C)(C)C [Compound E3]	4
CC(C)(C)OC(=O)Nc1cnc(-c2cncc(F)c2)nc1C(F)(F)F [Compound E4, tert-butyl N-[2-(5-fluoro-3-pyridyl)-4-(trifluoromethyl)pyrimidin-5-yl]carbamate]	4
CN(C(=O)OC(C)(C)C)c1cnc(-c2cncc(F)c2)nc1C(F)(F)F [Compound E5]	4
C=CCN(C(=O)OC(C)(C)C)c1cnc(-c2cncnc2)nc1C [Compound E6]	3
Cc1nc(-c2cncnc2)ncc1NC(=O)OC(C)(C)C [Compound E7, tert-butyl N-(4-methyl-2-pyrimidin-5-yl-pyrimidin-5-yl)carbamate]	4

System: Lolium perenne (LOLPE)
Test: B2 post-emergence herbicidal activity
Format: in vivo
Parameters: key: 5=total damage to plant; 0=no damage to plant
Conditions: Test 2b, rate 1000 g/ha, evaluated after 13 days, score 0-5 (5=total damage, 0=no damage)
Method: as §2

Compound	Control of weed species after post-emergence application, LOLPE
Cc1nc(-c2cncnc2)ncc1N(C)C(=O)OC(C)(C)C [Compound E3]	3
CC(C)(C)OC(=O)Nc1cnc(-c2cncc(F)c2)nc1C(F)(F)F [Compound E4, tert-butyl N-[2-(5-fluoro-3-pyridyl)-4-(trifluoromethyl)pyrimidin-5-yl]carbamate]	3
CN(C(=O)OC(C)(C)C)c1cnc(-c2cncc(F)c2)nc1C(F)(F)F [Compound E5]	2
C=CCN(C(=O)OC(C)(C)C)c1cnc(-c2cncnc2)nc1C [Compound E6]	1
Cc1nc(-c2cncnc2)ncc1NC(=O)OC(C)(C)C [Compound E7, tert-butyl N-(4-methyl-2-pyrimidin-5-yl-pyrimidin-5-yl)carbamate]	2

System: Setaria faberi (SETFA)
Test: B2 post-emergence herbicidal activity
Format: in vivo
Parameters: key: 5=total damage to plant; 0=no damage to plant
Conditions: Test 2b, rate 1000 g/ha, evaluated after 13 days, score 0-5 (5=total damage, 0=no damage)
Method: as §2

Compound	Control of weed species after post-emergence application, SETFA
Cc1nc(-c2cncnc2)ncc1N(C)C(=O)OC(C)(C)C [Compound E3]	5
CC(C)(C)OC(=O)Nc1cnc(-c2cncc(F)c2)nc1C(F)(F)F [Compound E4, tert-butyl N-[2-(5-fluoro-3-pyridyl)-4-(trifluoromethyl)pyrimidin-5-yl]carbamate]	5
CN(C(=O)OC(C)(C)C)c1cnc(-c2cncc(F)c2)nc1C(F)(F)F [Compound E5]	5
C=CCN(C(=O)OC(C)(C)C)c1cnc(-c2cncnc2)nc1C [Compound E6]	5
Cc1nc(-c2cncnc2)ncc1NC(=O)OC(C)(C)C [Compound E7, tert-butyl N-(4-methyl-2-pyrimidin-5-yl-pyrimidin-5-yl)carbamate]	4

System: Triticum aestivium (TRZAW)
Test: B2 post-emergence herbicidal activity
Format: in vivo
Parameters: key: 5=total damage to plant; 0=no damage to plant
Conditions: Test 2b, rate 1000 g/ha, evaluated after 13 days, score 0-5 (5=total damage, 0=no damage)
Method: as §2

Compound	Control of weed species after post-emergence application, TRAZW
Cc1nc(-c2cncnc2)ncc1N(C)C(=O)OC(C)(C)C [Compound E3]	1
CC(C)(C)OC(=O)Nc1cnc(-c2cncc(F)c2)nc1C(F)(F)F [Compound E4, tert-butyl N-[2-(5-fluoro-3-pyridyl)-4-(trifluoromethyl)pyrimidin-5-yl]carbamate]	1
CN(C(=O)OC(C)(C)C)c1cnc(-c2cncc(F)c2)nc1C(F)(F)F [Compound E5]	0
C=CCN(C(=O)OC(C)(C)C)c1cnc(-c2cncnc2)nc1C [Compound E6]	1
Cc1nc(-c2cncnc2)ncc1NC(=O)OC(C)(C)C [Compound E7, tert-butyl N-(4-methyl-2-pyrimidin-5-yl-pyrimidin-5-yl)carbamate]	0
